Target: human H1R (Homo sapiens, UniProt P35367)
Type: binding
Settings: between 13 and 17

Chain of human H1R (P35367 whole entry): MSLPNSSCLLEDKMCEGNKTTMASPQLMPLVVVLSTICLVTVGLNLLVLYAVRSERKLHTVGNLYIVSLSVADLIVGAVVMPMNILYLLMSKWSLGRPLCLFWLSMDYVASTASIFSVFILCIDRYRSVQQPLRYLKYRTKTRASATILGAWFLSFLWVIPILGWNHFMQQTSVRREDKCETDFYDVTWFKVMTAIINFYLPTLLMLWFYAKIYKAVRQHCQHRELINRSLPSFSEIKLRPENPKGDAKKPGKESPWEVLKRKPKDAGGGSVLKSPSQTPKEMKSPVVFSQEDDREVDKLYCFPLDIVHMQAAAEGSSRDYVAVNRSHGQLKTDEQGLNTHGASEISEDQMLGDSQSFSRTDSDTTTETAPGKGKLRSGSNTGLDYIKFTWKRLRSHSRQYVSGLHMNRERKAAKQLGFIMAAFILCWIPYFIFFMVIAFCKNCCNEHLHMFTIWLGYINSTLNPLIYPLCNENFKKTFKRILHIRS

fold difference in affinity: 100 fold
SMILES: CN1CCC(=C2c3ccccc3CCc3ccccc32)CC1 [Compound 13, 4-(10,11-Dihydro-5H-dibenzo[a,d][7]annulen-5-ylidene)-1-methylpiperidine]

Reference: PMC8154229 (ACS Omega, 2021)
